The target in this assay is T1, Cm33407BSH (Christensenella minuta, UniProt A0A8F5DVT9).
T1 construct: gene BSH
Nature of the assay: ninhydrin assay of released amino acid. In kind it is biochemical. The conditions noted are these: citrate buffer pH 6.0, 37 °C, 10 mM DTT, 5 mM substrate.

Among the data in PMC8228234, “Identifying a Novel Bile Salt Hydrolase from the Keystone Gut Bacterium Christensenella minuta” (Microorganisms, 2021) are specific activity values, retold here.

T1 sequence (A0A8F5DVT9 entry or part of it): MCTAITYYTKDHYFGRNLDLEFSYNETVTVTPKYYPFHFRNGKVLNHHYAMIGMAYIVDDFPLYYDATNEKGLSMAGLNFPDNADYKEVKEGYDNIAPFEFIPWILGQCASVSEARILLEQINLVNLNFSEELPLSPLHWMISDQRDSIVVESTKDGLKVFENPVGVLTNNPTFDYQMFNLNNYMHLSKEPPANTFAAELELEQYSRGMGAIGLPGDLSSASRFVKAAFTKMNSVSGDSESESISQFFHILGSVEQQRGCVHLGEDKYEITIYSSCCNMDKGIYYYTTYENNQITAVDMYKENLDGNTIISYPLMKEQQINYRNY

Take `C[C@H](CCC(=O)NCC(=O)O)[C@H]1CC[C@H]2[C@@H]3[C@H](O)C[C@@H]4C[C@H](O)CC[C@]4(C)[C@H]3C[C@H](O)[C@]12C` [GCA]: the specific activity entry is “displayed high specific activity values for the glycine conjugates GCA and GCDCA”.

Take `C[C@H](CCC(=O)NCC(=O)O)[C@H]1CC[C@H]2[C@@H]3[C@H](O)C[C@@H]4C[C@H](O)CC[C@]4(C)[C@H]3CC[C@]12C` [GCDCA]: the specific activity result was “displayed high specific activity values for the glycine conjugates GCA and GCDCA”.
